Paper PMC11584639 (Nature Communications, 2024)

Biological target: Bruton's tyrosine kinase (BTK) (Mus musculus, UniProt P35991)
Assay type: cell-based

Chain of Bruton's tyrosine kinase (BTK) (P35991 2-659): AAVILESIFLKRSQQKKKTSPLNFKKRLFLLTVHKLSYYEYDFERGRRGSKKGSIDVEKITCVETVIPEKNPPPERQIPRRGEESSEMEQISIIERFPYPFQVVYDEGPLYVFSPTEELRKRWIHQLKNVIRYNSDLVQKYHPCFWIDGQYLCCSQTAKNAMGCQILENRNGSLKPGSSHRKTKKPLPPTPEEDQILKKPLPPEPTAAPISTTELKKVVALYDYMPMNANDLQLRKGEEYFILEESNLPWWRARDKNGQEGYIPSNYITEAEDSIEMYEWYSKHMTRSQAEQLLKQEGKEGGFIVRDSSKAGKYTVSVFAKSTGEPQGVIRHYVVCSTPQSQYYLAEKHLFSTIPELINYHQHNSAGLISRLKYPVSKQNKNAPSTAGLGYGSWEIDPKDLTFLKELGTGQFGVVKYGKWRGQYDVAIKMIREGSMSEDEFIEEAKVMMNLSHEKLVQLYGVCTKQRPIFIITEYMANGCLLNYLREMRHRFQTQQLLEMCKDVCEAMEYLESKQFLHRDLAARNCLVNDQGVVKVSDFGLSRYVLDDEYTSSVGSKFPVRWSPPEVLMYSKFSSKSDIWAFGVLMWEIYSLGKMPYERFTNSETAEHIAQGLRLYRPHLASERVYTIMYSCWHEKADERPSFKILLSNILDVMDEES

## C=CC(=O)N1CCC[C@@H](n2c(=O)n(-c3ccc(Oc4ccccc4)cc3)c3c(N)nccc32)C1 [tolebrutinib]
  pBTK-to-BTK ratio by Western blot in primary mouse microglia with or without com: This stimulus increased BTK phosphorylation, which was blocked by tolebrutinib
